Literature values as cited in patent publication US20150133410A1, “TOPICAL OPHTHALMIC, OTIC, AND NASAL COMPOSITIONS OF CIPROFLOXACIN” (priority 2013, published 2015).
Like-named read-outs stand apart in the source and are kept apart here.

Details: aqueous solutions of about 0.2 to about 1 weight percent

## O=C(O)c1cn(C2CC2)c2cc(N3CCNCC3)c(F)cc2c1=O [ciprofloxacin]
5° C.
  pH above which crystalline precipitation of ciprofloxacin occurs: above 5
Room temperature
  pH above which crystalline precipitation of ciprofloxacin occurs: above 5.5
